# Measurements taken from US20220363665A1, “QUINOLINE COMPOUNDS FOR THE TREATMENT OF AUTOIMMUNE DISEASE” (Hoffmann-La Roche Inc., priority 2019, published 2022).
# Key:
# human TLR7 = molecular target: T1, human TLR7 (Homo sapiens, UniProt Q9NYK1); test: HEK293-Blue-hTLR-7 cells assay (SEAP reporter, R848 stimulation); format: cell-based; settings: HEK293-Blue-hTLR7 cells, R848, 20 hrs
# T1 construct: host or cells: HEK293 (HEK-Blue hTLR7)
# T1 sequence (Q9NYK1 27-1049): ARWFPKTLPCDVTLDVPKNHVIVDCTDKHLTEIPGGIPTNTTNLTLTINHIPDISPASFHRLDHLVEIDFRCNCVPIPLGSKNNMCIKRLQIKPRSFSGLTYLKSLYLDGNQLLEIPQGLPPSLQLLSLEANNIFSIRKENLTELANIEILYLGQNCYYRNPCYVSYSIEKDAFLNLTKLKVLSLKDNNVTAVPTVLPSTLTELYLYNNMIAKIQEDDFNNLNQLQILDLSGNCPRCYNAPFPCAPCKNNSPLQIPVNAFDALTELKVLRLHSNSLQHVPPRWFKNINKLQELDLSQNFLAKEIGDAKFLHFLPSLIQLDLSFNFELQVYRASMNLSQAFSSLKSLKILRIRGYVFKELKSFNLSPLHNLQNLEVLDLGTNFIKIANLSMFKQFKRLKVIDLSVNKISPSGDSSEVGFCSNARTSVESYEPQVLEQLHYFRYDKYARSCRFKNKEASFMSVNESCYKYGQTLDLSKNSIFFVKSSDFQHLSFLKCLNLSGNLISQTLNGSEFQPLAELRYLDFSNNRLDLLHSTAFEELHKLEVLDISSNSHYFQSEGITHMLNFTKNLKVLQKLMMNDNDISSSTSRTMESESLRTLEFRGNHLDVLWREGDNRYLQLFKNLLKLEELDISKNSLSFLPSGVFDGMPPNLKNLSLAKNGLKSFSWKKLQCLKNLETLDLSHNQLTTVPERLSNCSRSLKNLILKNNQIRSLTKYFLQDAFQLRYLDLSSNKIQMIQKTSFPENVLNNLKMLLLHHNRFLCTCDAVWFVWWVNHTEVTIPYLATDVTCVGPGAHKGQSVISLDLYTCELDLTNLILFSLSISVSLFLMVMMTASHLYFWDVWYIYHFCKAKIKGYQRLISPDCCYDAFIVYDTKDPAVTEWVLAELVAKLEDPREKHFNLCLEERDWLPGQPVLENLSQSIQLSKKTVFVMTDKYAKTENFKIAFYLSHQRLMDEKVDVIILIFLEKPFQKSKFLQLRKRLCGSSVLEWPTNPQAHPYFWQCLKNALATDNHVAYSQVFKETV
# Description: The following tests were carried out in order to determine the activity of the compounds of formula (I) in HEK293-Blue-hTLR-7/8/9 cells assay.
# HEK293-Blue-hTLR-7 Cells Assay:
# A stable HEK293-Blue-hTLR-7 cell line was purchased from InvivoGen (Cat. #: hkb-htlr7, San Diego, Calif. USA). These cells were originally designed for studying the stimulation of human TLR7 by monitoring the activation of NF-κB. A SEAP (secreted embryonic alkaline phosphatase) reporter gene was placed under the control of the IFN-β minimal promoter fused to five NF-κB and AP-1-binding sites. The SEAP was induced by activating NF-κB and AP-1 via stimulating HEK-Blue hTLR7 cells with TLR7 ligands. Therefore the reporter expression was declined by TLR7 antagonist under the stimulation of a ligand, such as R848 (Resiquimod), for incubation of 20 hrs. The cell culture supernatant SEAP reporter activity was determined using QUANTI-Blue™ kit (Cat. #: rep-qbl, Invivogen, San Diego, Calif., USA) at a wavelength of 640 nm, a detection medium that turns purple or blue in the presence of alkaline phosphatase.
# HEK293-Blue-hTLR7 cells were incubated at a density of 250,000˜450,000 cells/mL in a volume of 170 μL in a 96-well plate in Dulbecco's Modified Eagle's medium (DMEM) containing 4.5 g/L glucose, 50 U/mL penicillin, […], […], 2 mM L-glutamine, 10% (v/v) heat-inactivated fetal bovine serum with addition of 20 μL A test compound in a serial dilution in the presence of final DMSO at 1% and 10 μL of 20 uM R848 in above DMEM, perform incubation under 37° C. in a CO2 incubator for 20 hrs. Then 20 μL of the supernatant from each well was incubated with 180 μQuanti-blue substrate solution at 37° C. for 2 hrs and the absorbance was read at 620˜655 nm using a spectrophotometer. The signalling pathway that TLR7 activation leads to downstream NF-κB activation has been widely accepted, and therefore similar reporter assay was modified for evaluating TLR7 antagonist.
# CYP2C9 = molecular target: T2, CYP2C9 (Homo sapiens, UniProt P11712); test: CYP inhibition assay in human liver microsome, CYP2C9; format: in vitro ADME; settings: HLM, diclofenac substrate; for inhibition at 5 min, 10 µM: human, liver microsomes, probe diclofenac, read-out: CYP inhibition % @10 uM (2C9)
# T2 construct: tissue BD-Gentest 452117; host or cells: human liver microsomes
# T2 sequence (P11712 whole entry): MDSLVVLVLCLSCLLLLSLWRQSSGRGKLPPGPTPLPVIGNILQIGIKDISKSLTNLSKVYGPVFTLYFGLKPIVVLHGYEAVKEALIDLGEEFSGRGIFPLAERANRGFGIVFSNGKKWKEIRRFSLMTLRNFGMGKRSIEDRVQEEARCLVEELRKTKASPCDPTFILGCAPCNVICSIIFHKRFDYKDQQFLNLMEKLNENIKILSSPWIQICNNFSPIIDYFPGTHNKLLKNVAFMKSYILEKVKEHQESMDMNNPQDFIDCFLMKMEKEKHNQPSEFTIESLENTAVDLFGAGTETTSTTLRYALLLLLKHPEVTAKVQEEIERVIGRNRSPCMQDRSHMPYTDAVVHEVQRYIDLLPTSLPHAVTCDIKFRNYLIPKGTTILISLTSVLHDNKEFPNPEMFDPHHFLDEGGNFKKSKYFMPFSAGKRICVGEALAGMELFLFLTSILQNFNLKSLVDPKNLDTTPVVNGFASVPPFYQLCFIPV
# Description: This is a high throughput screening assay used for assessment of reversible inhibition of CYP2C9, CYP2D6, and CYP3A4 activity of test compounds in human liver microsome (HLM) in early discovery stage.
# 10 mM DMSO stock solutions of test compounds were diluted in DMSO to generate 2 mM intermediate stock solution. 250 nL of intermediate stock solution were transferred in duplicate into 3 separate 384 well microtitre plates (assay-ready plates). A mixture of HLM and each substrate was made up. 45 μL of HLM substrate mix was then transferred to each well of an assay ready plate and mixed. The negative (solvent) and positive controls (standard inhibitor for each CYP) were included in each assay ready plate. The assay ready plate was warmed to 37° C. in an incubator over 10 minutes. 5 μL pre-warmed NADPH regenerating system was added to each incubation well to start the reaction. Final incubation volume was 50 μL. The assay plate then was placed back in the 37° C. incubator. After 5 minutes incubation (10 minutes for CYP2D6), incubates were quenched by addition of 50 μL quench reagent containing internal standards (400 ng/mL 13C6-4′-OH-Diclofenac, 20 ng/mL D3-Dextrorphan and 20 ng/mL D4-1′OH-Midazolam in acetonitrile). The supernatants were collected for RapidFire/MS/MS analysis.
# RapidFire online solid phase extraction/sample injection system (Agilent) coupled with API4000 triple quadrupole mass spectrometer (AB Sciex) were used for sample analysis. The mobile phase composed of acetonitrile and water supplemented with 0.1% formic acid. A C4 solid phase extraction cartridge is used for sample separation. MS detection is achieved in positive ion MRM mode.
# Peak areas for substrate, metabolite and internal standard are determined using the
# RapidFire integrator software (version 3.6.12009.12296). Peak area ratios (PAR) of metabolite and internal standard (stable-labelled metabolite) are then calculated. The measurement window for each experiment is then defined:
# PAR (0% activity)=average PAR for all incubations containing concentrated inhibitor;
# Par (100% activity)=average PAR for all incubations containing no inhibitor (DMSO controls);
# % Activity (test inhibitor) =[PAR(test inhibitor)-PAR(0% activity)][PAR(100% activity)-PAR(0% activity)];
# % Inhibition (test inhibitor)=100-% Activity (test inhibitor).
# Percentage inhibition data are then reported, in duplicate, for the 3 CYP enzymes.
SMILES,IC50 (human TLR7),CYP inhibition % @10 uM (2C9) (CYP2C9),"inhibition at 5 min, 10 µM (CYP2C9)"
"C[C@@H]1CN(c2ccc(C(F)(F)F)c3ncccc23)C[C@H](C(=O)NC2CC3CCCC(C2)N3)O1 (single isomer, unassigned) [Example 34B]",7 nM,−8%,–
"C[C@@H]1CN(c2ccc(C(F)(F)F)c3ncccc23)C[C@H](C(=O)NCC2CN(C)CCO2)O1 (stereo partly drawn) [Example 3, (2R,6R)-6-methyl-N-[(4-methylmorpholin-2-yl)methyl]-4-[8-(trifluoromethyl)-5-quinolyl]morpholine-2-carboxamide]",12 nM,–,-1%
"C[C@@H]1CN(c2ccc(C(F)(F)F)c3ncccc23)C[C@H](C(=O)NCC2CCCCN2C)O1 (stereo partly drawn) [Example 4, (2R,6R)-6-methyl-N-[(1-methyl-2-piperidyl)methyl]-4-[8-(trifluoromethyl)-5-quinolyl]morpholine-2-carboxamide]",6 nM,–,-12%
"C[C@@H]1CN(c2ccc(C(F)(F)F)c3ncccc23)C[C@H](C(=O)NC2CCN(C)CC2)O1 [Example 5, (2R,6R)-6-methyl-N-(1-methyl-4-piperidyl)-4-[8-(trifluoromethyl)-5-quinolyl]morpholine-2-carboxamide]",7 nM,–,-1%
"C[C@@H]1CN(c2ccc(C(F)(F)F)c3ncccc23)C[C@H](C(=O)NCC(C)(C)N)O1 [Example 6, (2R,6R)-N-(2-amino-2-methyl-propyl)-6-methyl-4-[8-(trifluoromethyl)-5-quinolyl]morpholine-2-carboxamide]",31 nM,–,-13%
"C[C@@H]1CN(c2ccc(C(F)(F)F)c3ncccc23)C[C@H](C(=O)NC2CCCNCC2)O1 (stereo partly drawn) [Example 8, (2R,6R)-N-(azepan-4-yl)-6-methyl-4-[8-(trifluoromethyl)-5-quinolyl]morpholine-2-carboxamide]",4 nM,–,-8%
"C[C@@H]1CN(c2ccc(C(F)(F)F)c3ncccc23)C[C@H](C(=O)NC2CN(C)CC23CC3)O1 (stereo partly drawn) [Example 9, (2R,6R)-6-methyl-N-(5-methyl-5-azaspiro[2.4]heptan-7-yl)-4-[8-(trifluoromethyl)-5-quinolyl]morpholine-2-carboxamide]",14 nM,–,2%
"C[C@@H]1CN(c2ccc(C(F)(F)F)c3ncccc23)C[C@H](C(=O)N2CCC(N)C2)O1 (stereo partly drawn) [Example 10, (3-aminopyrrolidin-1-yl)-[(2R,6R)-6-methyl-4-[8-(trifluoromethyl)-5-quinolyl]morpholin-2-yl]methanone]",360 nM,–,11%
"C[C@@H]1CN(c2ccc(C(F)(F)F)c3ncccc23)C[C@H](C(=O)NCC2COCCN2C)O1 (stereo partly drawn) [Example 11, (2R,6R)-6-methyl-N-[(4-methylmorpholin-3-yl)methyl]-4-[8-(trifluoromethyl)-5-quinolyl]morpholine-2-carboxamide]",51 nM,–,-4%
"C[C@@H]1CN(c2ccc(C(F)(F)F)c3ncccc23)C[C@H](C(=O)N2CCC(N)CC2)O1 [Example 12, (4-amino-1-piperidyl)-[(2R,6R)-6-methyl-4-[8-(trifluoromethyl)-5-quinolyl]morpholin-2-yl]methanone]",150 nM,–,12%
"C[C@@H]1CN(c2ccc(C(F)(F)F)c3ncccc23)C[C@H](C(=O)NCCN2CCOCC2)O1 [Example 13, (2R,6R)-6-methyl-N-(2-morpholinoethyl)-4-[8-(trifluoromethyl)-5-quinolyl]morpholine-2-carboxamide]",290 nM,–,1%
"C[C@@H]1CN(c2ccc(C(F)(F)F)c3ncccc23)C[C@H](C(=O)NC2CNCCOC2)O1 (stereo partly drawn) [Example 14, (2R,6R)-6-methyl-N-(1,4-oxazepan-6-yl)-4-[8-(trifluoromethyl)-5-quinolyl]morpholine-2-carboxamide]",37 nM,–,-2%
"Cc1ccc(N2C[C@@H](C)C[C@@H](N)C2)c2cccnc12 [Example 15, (3R,5S)-5-methyl-1-(8-methyl-5-quinolyl)piperidin-3-amine]",30 nM,–,-17%
"Cc1ccc(N2C[C@@H](C)O[C@@H](C(=O)NC3CCN(C)CC3)C2)c2cccnc12 [Example 16, (2R,6R)-6-methyl-N-(1-methyl-4-piperidyl)-4-(8-methyl-5-quinolyl)morpholine-2-carboxamide]",74 nM,–,-8%

# Further lines, results first:
IC50 (human TLR7),CYP inhibition % @10 uM (2C9) (CYP2C9),"inhibition at 5 min, 10 µM (CYP2C9)",SMILES
28 nM,–,10%,"CC(NC(=O)[C@H]1CN(c2ccc(C(F)(F)F)c3ncccc23)C[C@@H](C)O1)C1CN(C)CCO1 (single isomer, unassigned) [Example 35A]"
65 nM,6%,–,"CC(NC(=O)[C@H]1CN(c2ccc(C(F)(F)F)c3ncccc23)C[C@@H](C)O1)C1CN(C)CCO1 (single isomer, unassigned) [Example 35B]"
25 nM,−1%,–,"C[C@@H]1CN(c2ccc(C(F)(F)F)c3ncccc23)C[C@H](C(=O)NC2CC3CNCC32)O1 (single isomer, unassigned) [Example 49A]"
20 nM,−2%,–,"C[C@@H]1CN(c2ccc(C(F)(F)F)c3ncccc23)C[C@H](C(=O)NC2CC3CNCC32)O1 (single isomer, unassigned) [Example 49B]"
8 nM,11%,–,"C[C@@H]1CN(c2ccc(C(F)(F)F)c3ncccc23)C[C@H](C(=O)NC2CC3CNCC32)O1 (single isomer, unassigned) [Example 49C]"
